Entries after “also recorded” stand apart in the source; their conditions may differ.

The values that follow come from patent publication US9200067B2, “Molecular marker CUEDC2 protein for prognostic determination of breast cancer endocrinology therapy” (Biomedical Analysis Center of Academy of Military Medical …, priority 2011, dated 2015).

Experiment [1] concerns MCF-7 cells stably transfected with CUEDC2. Nature of the experiment: Cell growth by cell counting under different doses of tamoxifen. The experiment is classed as cell-based. The protocol: (§1) MCF-7 cells stably transfected with CUEDC2 were treated with different doses of tamoxifen, and then the cell growth was observed by a cell counting method. […] In order to eliminate nonspecific effects of over expression of CUEDC2 on cells growth, the inventors knocked down the CUEDC2 expression in the cells and did the same cell growth experiment. […] In order to verify the above conclusion, the inventors further conducted animal experiments. 5×10^6 MCF-7/vector or MCF-7/CUEDC2 cells were injected into the mammary fat pad of ovariectomized nude mice, and estrogen sustained-release tablets were embedded subcutaneously. When tumors grew to 100-150 mm^3, nude mice were divided into two groups randomly, and embedded with tamoxifen or control placebo pills subcutaneously.

A further experiment deals with MCF-7 cells. Nature of the experiment: Crystal violet colony-formation assay. Type of experiment: cell-based.
Experiment [2] has as its system MCF-7/vector or MCF-7/CUEDC2 cells. Nature of the experiment: Tumor formation in ovariectomized nude mice (mammary fat pad xenograft). The experiment is classed as in vivo. To be noted: tamoxifen sustained-release tablets subcutaneously, vs placebo. As for the experimental part: 4-week-old female nude mice were purchased from Animal Laboratory Center of the Academy of Military Medical Sciences; the Cell Titer Glo Luminescent Cell Viability Assay was purchased from Promega Company; the Estrogen and tamoxifen sustained-release tablets were purchased from Innovative Research of America.
as §1

Take `CC/C(=C(\c1ccccc1)c1ccc(OCCN(C)C)cc1)c1ccccc1` [tamoxifen]: the “sensitivity of cell growth to tamoxifen” value in experiment [1] (MCF-7 cells over expressing CUEDC2, different doses of tamoxifen) is “insensitive”. Besides, the “sensitivity of cells to tamoxifen after CUEDC2 knockdown” value in experiment [1] (MCF-7 cells over expressing CUEDC2 knocked down by CUEDC2 siRNA) is given as “restored the sensitivity”. For the same compound, the “sensitivity to tamoxifen-induced cell death” value with MCF-7 cells (cells over expressing CUEDC2) is “insensitive”; in the experiment with MCF-7 cells (control MCF-7 empty vector cells) it was “sensitive”. The tumor growth result in experiment [2] (MCF-7/CUEDC2 cells in nude mice) is given as “could not effectively inhibit; also recorded: cannot inhibit tumor growth effectively”; in experiment [2] (MCF-7/vector cells in nude mice), “significantly inhibit”.
